Patent US4416884A, “Piperazinylbenzoheterocyclic compounds” (Otsuka Pharmaceutical Co., Ltd., priority 1978, dated 1983)
Converted amounts (≈) assume the structure as drawn. Where two headings read alike, the source gives them in different places.

Tests used:
Assay in all cases: antimicrobial activity, serial dilution method on agar plate
Assay type in all cases: cell-based
[1] = test system: Streptococcus pyogenes IID S-23
Protocol: (§1) The antimicrobial activity of the following test compounds on various test organisms listed below was determined by the serial dilution method on agar plate (Heart Infusion agar produced by Difco Co.) (see CHEMOTHERAPY 22, pp. 1126-1128 (1974)), and the minimum inhibitory concentrations (mcg/ml) obtained are shown in Table 1 below.
(§2) A sample of each test organism was prepared so that the population of the organism was 1×10^8 cells/ml (O.D. 660 mμ=0.07 to 0.16) and 1×10^6 cells/ml (which was obtained by diluting the above 1×10^8 cells/ml preparation).

[2] = test system: Salmonella typhi 0-901 (NCTC 8393); settings: Salmonella enterica
Protocol: as §1, §2

Shigella Sonnei EW 33 = settings: read-out: Minimum Inhibitory Concentration
Protocol: as §1, §2

[3] = test system: Serattia marcescens IFO 12648
Protocol: as §1, §2

Proteus rettgeri NIH 96 = settings: Providencia rettgeri
Protocol: as §1, §2

[4] = test system: Escherichia Coli NIHJ JC-2 (IFO 12734); settings: for MIC: Escherichia coli, read-out: Minimum Inhibitory Concentration
Protocol: as §1, §2

[5] = test system: Pseudomonas aeruginosa E-2
Protocol: as §1, §2

[6] = test system: Staphylococcus aureus FDA 209 P
Protocol: as §1, §2

Klebsiella pneumoniae = test system: Klebsiella pneumoniae
Protocol: as §1, §2

[7] = test system: Pseudomonas aeruginosa ATCC 10145
Protocol: as §1, §2

[8] = test system: Pseudomonas aeruginosa NCTC 10490
Protocol: as §1, §2

[9] = IIDS23, read-out: Minimum Inhibitory Concentration, inoculum 1 × 10^8 cells/ml
[10] = inoculum 1 × 10^6 cells/ml, read-out: Minimum Inhibitory Concentration
[11] = inoculum 1 × 10^8 cells/ml, read-out: Minimum Inhibitory Concentration
[12] = read-out: Minimum Inhibitory Concentration, inoculum 1 × 10^6 cells/ml
[13] = read-out: Minimum Inhibitory Concentration, inoculum 1 × 10^8 cells/ml
[14] = NIH96, read-out: Minimum Inhibitory Concentration, inoculum 1 × 10^8 cells/ml
[15] = E2, read-out: Minimum Inhibitory Concentration, inoculum 1 × 10^8 cells/ml
[16] = FDA209, read-out: Minimum Inhibitory Concentration, inoculum 1 × 10^8 cells/ml
[17] = ATCC10145, read-out: Minimum Inhibitory Concentration, inoculum 1 × 10^8 cells/ml
[18] = NCTC10490, read-out: Minimum Inhibitory Concentration, inoculum 1 × 10^8 cells/ml
[19] = IIDS23, inoculum 1 × 10^8 cells/ml, read-out: Minimum Inhibitory Concentration
[20] = NIH96, inoculum 1 × 10^8 cells/ml, read-out: Minimum Inhibitory Concentration
[21] = E2, inoculum 1 × 10^8 cells/ml, read-out: Minimum Inhibitory Concentration
[22] = FDA209, inoculum 1 × 10^8 cells/ml, read-out: Minimum Inhibitory Concentration
[23] = ATCC10145, inoculum 1 × 10^8 cells/ml, read-out: Minimum Inhibitory Concentration
[24] = NCTC10490, inoculum 1 × 10^8 cells/ml, read-out: Minimum Inhibitory Concentration

Structure (SMILES)	MIC [1, 9]	MIC [2, 11]	MIC (Shigella Sonnei EW 33; inoculum 1 × 10^6 cells/ml)	MIC (Shigella Sonnei EW 33; inoculum 1 × 10^8 cells/ml)	MIC [3, 13]	MIC (Proteus rettgeri NIH 96; [14])	MIC [4]	MIC [5, 15]	MIC [6, 16]	MIC (Klebsiella pneumoniae; [13])	MIC [1, 19]	MIC [2, 13]	MIC [3, 11]	MIC (Proteus rettgeri NIH 96; [20])	MIC ([4]; inoculum 1 × 10^8 cells/ml)	MIC [5, 21]	MIC [6, 22]	MIC (Klebsiella pneumoniae; [11])	MIC [7, 23]	MIC [8, 24]	further results
CC1Cc2c(N3CCNCC3)c(Cl)cc3c(=O)c(C(=O)O)cn1c23 (stereo not shown) [Compound Y, 8-Chloro-9-(1-piperazinyl)-2-methyl-6-oxo-1,2-dihydro-6H--pyrrolo[3,2,1-ij]-quinoline-5-carboxylic acid]	12.5 µg/mL (≈ 35.9 µM)	0.1 µg/mL (≈ 0.288 µM)	≤ 0.05 µg/mL	0.1 µg/mL (≈ 0.288 µM)	0.8 µg/mL (≈ 2.3 µM)	0.2 µg/mL (≈ 0.575 µM)	0.2 µg/mL (≈ 0.575 µM)	3.1 µg/mL (≈ 8.91 µM)	3.1 µg/mL (≈ 8.91 µM)	0.4 µg/mL (≈ 1.15 µM)	–	–	–	–	–	–	–	–	–	–	MIC ([1]; IIDS23, read-out: Minimum Inhibitory Concentration, inoculum 1 × 10^6 cells/ml): 6.3 µg/mL (≈ 18.1 µM); MIC [2, 10]: ≤ 0.05 µg/mL; MIC [3, 12]: 0.4 µg/mL (≈ 1.15 µM); MIC (Proteus rettgeri NIH 96; NIH96, read-out: Minimum Inhibitory Concentration, inoculum 1 × 10^6 cells/ml): 0.1 µg/mL (≈ 0.288 µM); Minimum Inhibitory Concentration ([4]; inoculum 1 × 10^6 cells/ml): 0.2 µg/mL; MIC ([5]; E2, read-out: Minimum Inhibitory Concentration, inoculum 1 × 10^6 cells/ml): 3.1 µg/mL (≈ 8.91 µM); MIC ([6]; FDA209, read-out: Minimum Inhibitory Concentration, inoculum 1 × 10^6 cells/ml): 3.1 µg/mL (≈ 8.91 µM); MIC (Klebsiella pneumoniae; [12]): 0.2 µg/mL (≈ 0.575 µM); MIC ([7]; ATCC10145, read-out: Minimum Inhibitory Concentration, inoculum 1 × 10^6 cells/ml): 1.6 µg/mL (≈ 4.6 µM); MIC [7, 17]: 1.6 µg/mL (≈ 4.6 µM); MIC ([8]; NCTC10490, read-out: Minimum Inhibitory Concentration, inoculum 1 × 10^6 cells/ml): 1.6 µg/mL (≈ 4.6 µM); MIC [8, 18]: 1.6 µg/mL (≈ 4.6 µM)
CC1CCc2c(N3CCN(C(=O)C(F)(F)C(F)(F)F)CC3)c(Cl)cc3c(=O)c(C(=O)O)cn1c23 (stereo not shown) [d]	–	–	–	0.78 µg/mL (≈ 1.54 µM)	–	–	–	–	–	–	12.5 µg/mL (≈ 24.6 µM)	0.1 µg/mL (≈ 0.197 µM)	0.2 µg/mL (≈ 0.394 µM)	0.2 µg/mL (≈ 0.394 µM)	0.39 µg/mL (≈ 0.768 µM)	6.25 µg/mL (≈ 12.3 µM)	1.56 µg/mL (≈ 3.07 µM)	0.39 µg/mL (≈ 0.768 µM)	1.56 µg/mL (≈ 3.07 µM)	3.13 µg/mL (≈ 6.16 µM)	–
CC1CCc2c(N3CCN(C(=O)C(F)(F)C(F)(F)C(F)(F)F)CC3)c(Cl)cc3c(=O)c(C(=O)O)cn1c23 (stereo not shown) [e]	6.25 µg/mL (≈ 11.2 µM)	0.2 µg/mL (≈ 0.359 µM)	–	0.78 µg/mL (≈ 1.4 µM)	0.2 µg/mL (≈ 0.359 µM)	0.2 µg/mL (≈ 0.359 µM)	0.39 µg/mL (≈ 0.699 µM)	6.25 µg/mL (≈ 11.2 µM)	3.13 µg/mL (≈ 5.61 µM)	0.39 µg/mL (≈ 0.699 µM)	–	–	–	–	–	–	–	–	–	–	MIC [7, 17]: 1.56 µg/mL (≈ 2.8 µM); MIC [8, 18]: 3.13 µg/mL (≈ 5.61 µM)
COc1ccc(CN2CCN(c3c(Cl)cc4c(=O)c(C(=O)O)cn5c4c3CCC5C)CC2)cc1 (stereo not shown) [g]	–	–	–	1.56 µg/mL (≈ 3.24 µM)	–	–	–	–	–	–	3.13 µg/mL (≈ 6.49 µM)	0.78 µg/mL (≈ 1.62 µM)	0.39 µg/mL (≈ 0.809 µM)	0.1 µg/mL (≈ 0.207 µM)	0.78 µg/mL (≈ 1.62 µM)	12.5 µg/mL (≈ 25.9 µM)	0.78 µg/mL (≈ 1.62 µM)	0.78 µg/mL (≈ 1.62 µM)	6.25 µg/mL (≈ 13 µM)	12.5 µg/mL (≈ 25.9 µM)	–
CC1Cc2c(N3CCN(C)CC3)c(F)cc3c(=O)c(C(=O)O)cn1c23 (stereo not shown) [a]	–	–	0.1 µg/mL (≈ 0.29 µM)	0.1 µg/mL (≈ 0.29 µM)	–	–	–	–	–	–	6.3 µg/mL (≈ 18.2 µM)	≤ 0.05 µg/mL	0.2 µg/mL (≈ 0.579 µM)	0.2 µg/mL (≈ 0.579 µM)	0.1 µg/mL (≈ 0.29 µM)	1.6 µg/mL (≈ 4.63 µM)	0.8 µg/mL (≈ 2.32 µM)	0.2 µg/mL (≈ 0.579 µM)	1.6 µg/mL (≈ 4.63 µM)	1.6 µg/mL (≈ 4.63 µM)	MIC ([1]; IIDS23, inoculum 1 × 10^6 cells/ml, read-out: Minimum Inhibitory Concentration): 3.1 µg/mL (≈ 8.98 µM); MIC [2, 12]: ≤ 0.05 µg/mL; MIC [3, 10]: 0.2 µg/mL (≈ 0.579 µM); MIC (Proteus rettgeri NIH 96; NIH96, inoculum 1 × 10^6 cells/ml, read-out: Minimum Inhibitory Concentration): 0.1 µg/mL (≈ 0.29 µM); MIC ([4]; inoculum 1 × 10^6 cells/ml): 0.1 µg/mL (≈ 0.29 µM); MIC ([5]; E2, inoculum 1 × 10^6 cells/ml, read-out: Minimum Inhibitory Concentration): 1.6 µg/mL (≈ 4.63 µM); MIC ([6]; FDA209, inoculum 1 × 10^6 cells/ml, read-out: Minimum Inhibitory Concentration): 0.4 µg/mL (≈ 1.16 µM); MIC (Klebsiella pneumoniae; [10]): 0.2 µg/mL (≈ 0.579 µM); MIC ([7]; ATCC10145, inoculum 1 × 10^6 cells/ml, read-out: Minimum Inhibitory Concentration): 1.6 µg/mL (≈ 4.63 µM); MIC ([8]; NCTC10490, inoculum 1 × 10^6 cells/ml, read-out: Minimum Inhibitory Concentration): 1.6 µg/mL (≈ 4.63 µM)
CC1CCc2c(N3CCN(CC(F)(F)F)CC3)c(Cl)cc3c(=O)c(C(=O)O)cn1c23 (stereo not shown) [c]	1.56 µg/mL (≈ 3.51 µM)	–	–	1.56 µg/mL (≈ 3.51 µM)	–	–	–	–	–	–	–	0.2 µg/mL (≈ 0.451 µM)	0.39 µg/mL (≈ 0.879 µM)	0.39 µg/mL (≈ 0.879 µM)	0.39 µg/mL (≈ 0.879 µM)	6.25 µg/mL (≈ 14.1 µM)	0.1 µg/mL (≈ 0.225 µM)	0.39 µg/mL (≈ 0.879 µM)	3.13 µg/mL (≈ 7.05 µM)	0.78 µg/mL (≈ 1.76 µM)	–
